We go through two compounds from paper PMC3156385 (Chemical research in toxicology, 2011).

Read-outs that look alike come from different tables or passages of the source.

The target in one series is T1, P450 2A13 (Homo sapiens, UniProt Q16696).
T1 sequence (Q16696 1-494): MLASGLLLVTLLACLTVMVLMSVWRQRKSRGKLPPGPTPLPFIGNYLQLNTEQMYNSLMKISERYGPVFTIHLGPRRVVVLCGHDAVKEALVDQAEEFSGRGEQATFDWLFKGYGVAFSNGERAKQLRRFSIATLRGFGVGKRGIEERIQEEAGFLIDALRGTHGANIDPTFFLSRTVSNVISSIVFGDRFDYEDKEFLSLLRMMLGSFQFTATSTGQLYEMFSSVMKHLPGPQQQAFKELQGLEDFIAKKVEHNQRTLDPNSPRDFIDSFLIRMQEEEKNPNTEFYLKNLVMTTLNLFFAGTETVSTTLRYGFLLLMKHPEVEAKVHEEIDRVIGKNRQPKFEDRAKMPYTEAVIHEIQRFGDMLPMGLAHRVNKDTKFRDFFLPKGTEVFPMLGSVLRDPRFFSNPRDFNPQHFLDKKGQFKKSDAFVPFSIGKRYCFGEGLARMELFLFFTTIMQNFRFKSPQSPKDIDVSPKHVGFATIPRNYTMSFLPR
The class given is biochemical.

A further series deals with T2, P450 1B1 (Homo sapiens, UniProt Q16678).
T2 sequence (Q16678 1-543): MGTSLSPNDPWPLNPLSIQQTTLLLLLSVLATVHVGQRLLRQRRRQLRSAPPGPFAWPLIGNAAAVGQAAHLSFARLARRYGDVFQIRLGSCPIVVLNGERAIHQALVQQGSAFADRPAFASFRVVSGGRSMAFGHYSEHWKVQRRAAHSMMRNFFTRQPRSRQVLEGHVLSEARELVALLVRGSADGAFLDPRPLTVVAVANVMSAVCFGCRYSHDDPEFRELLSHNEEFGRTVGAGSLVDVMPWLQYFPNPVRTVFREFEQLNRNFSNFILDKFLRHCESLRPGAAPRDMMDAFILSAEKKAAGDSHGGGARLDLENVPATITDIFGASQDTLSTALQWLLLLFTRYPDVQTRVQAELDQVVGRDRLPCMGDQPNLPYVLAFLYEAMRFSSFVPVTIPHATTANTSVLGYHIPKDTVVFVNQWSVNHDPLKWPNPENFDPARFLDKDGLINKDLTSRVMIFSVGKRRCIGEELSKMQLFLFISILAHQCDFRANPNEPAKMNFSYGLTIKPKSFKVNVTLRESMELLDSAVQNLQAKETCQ
Put plainly: Spectral binding titration with purified recombinant P450 1B1. The note with it: for ΔAmax/Ks / ΔAmax: Reverse Type I binding, 1 µM P450; for ΔAmax: means ± SE.

In a further series the target is T3, P450 1A2 (Homo sapiens, UniProt P05177).
T3 sequence (P05177 1-516): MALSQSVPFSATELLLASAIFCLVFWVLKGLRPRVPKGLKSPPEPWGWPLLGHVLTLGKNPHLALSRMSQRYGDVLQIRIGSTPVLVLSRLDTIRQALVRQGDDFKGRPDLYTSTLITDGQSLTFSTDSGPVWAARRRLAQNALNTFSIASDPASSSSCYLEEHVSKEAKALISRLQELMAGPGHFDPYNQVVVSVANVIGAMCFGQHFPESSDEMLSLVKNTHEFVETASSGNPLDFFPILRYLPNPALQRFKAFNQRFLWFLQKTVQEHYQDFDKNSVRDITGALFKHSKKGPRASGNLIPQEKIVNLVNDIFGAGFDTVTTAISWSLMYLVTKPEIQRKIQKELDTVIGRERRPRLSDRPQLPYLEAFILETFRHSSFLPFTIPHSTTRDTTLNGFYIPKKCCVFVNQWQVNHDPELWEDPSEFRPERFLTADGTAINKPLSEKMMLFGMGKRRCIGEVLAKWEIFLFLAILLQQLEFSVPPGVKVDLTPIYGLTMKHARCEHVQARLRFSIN
Put plainly: Spectral binding titration with purified recombinant P450 1A2. As to conditions: for ΔAmax/Ks / ΔAmax: Reverse Type I binding, 1 µM P450; for ΔAmax: means ± SE.

The target in the next series is T4, P450 2A6 (Homo sapiens, UniProt P11509).
T4 sequence (P11509 1-494): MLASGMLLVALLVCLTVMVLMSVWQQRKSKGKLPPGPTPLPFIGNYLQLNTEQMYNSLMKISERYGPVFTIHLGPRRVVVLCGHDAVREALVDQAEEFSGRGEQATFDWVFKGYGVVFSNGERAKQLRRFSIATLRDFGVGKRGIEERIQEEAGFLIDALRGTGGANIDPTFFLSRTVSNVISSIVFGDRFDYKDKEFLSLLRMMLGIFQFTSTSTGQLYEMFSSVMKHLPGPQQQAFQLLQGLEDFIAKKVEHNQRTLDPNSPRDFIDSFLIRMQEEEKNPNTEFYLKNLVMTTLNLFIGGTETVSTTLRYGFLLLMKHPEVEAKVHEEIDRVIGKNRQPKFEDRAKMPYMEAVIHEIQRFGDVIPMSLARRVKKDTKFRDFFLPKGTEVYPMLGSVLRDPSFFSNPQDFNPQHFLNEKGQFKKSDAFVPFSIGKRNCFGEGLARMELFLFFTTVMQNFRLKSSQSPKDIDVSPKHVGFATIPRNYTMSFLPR
Put plainly: Inhibition of P450 2A6-dependent coumarin 7-hydroxylation. The class given is biochemical.

In another series the target is T5, rabbit liver P450 1A2 (Oryctolagus cuniculus, UniProt P00187).
T5 sequence (P00187 1-516): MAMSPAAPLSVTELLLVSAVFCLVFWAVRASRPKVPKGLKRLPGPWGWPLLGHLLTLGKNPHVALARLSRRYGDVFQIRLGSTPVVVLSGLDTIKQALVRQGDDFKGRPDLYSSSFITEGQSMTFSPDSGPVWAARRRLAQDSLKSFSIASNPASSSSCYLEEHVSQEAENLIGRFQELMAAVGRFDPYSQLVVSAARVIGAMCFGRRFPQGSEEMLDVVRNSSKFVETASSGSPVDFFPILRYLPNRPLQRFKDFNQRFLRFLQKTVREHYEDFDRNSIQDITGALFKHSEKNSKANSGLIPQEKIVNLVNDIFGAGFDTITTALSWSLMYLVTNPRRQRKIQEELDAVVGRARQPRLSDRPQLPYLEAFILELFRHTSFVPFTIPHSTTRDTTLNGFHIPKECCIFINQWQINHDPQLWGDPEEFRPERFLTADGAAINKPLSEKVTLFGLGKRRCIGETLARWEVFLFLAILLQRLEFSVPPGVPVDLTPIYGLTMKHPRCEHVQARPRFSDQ
The class given is binding.

For `N#C[Se]Cc1ccccc1` [BSC, benzyl selenocyanate], on P450 2A13, the “effect of preincubation on inhibition potency of coumarin 7-hydroxylation” value is given as “did not change the inhibition potencies”. Besides, on P450 1B1, the Kd stood at 5.3 ± 0.96 µM, the ΔAmax/Ks is 3.60 × 10^−3 and the ΔAmax is reported as 19 ± 0.11 × 10^−3. Further, at P450 1A2, the Kd came to 11 ± 2.3 µM, the ΔAmax/Ks is 0.88 × 10^−3 and the ΔAmax is reported as 9.5 ± 0.57 × 10^−3. The compound further displayed an IC50 at P450 2A6 of 4.3 ± 0.36 µM. Further, the affinity at rabbit liver P450 1A2, expressed as Kd, was 90 ± 29 µM.

Turning to `N#C[Se]Cc1cccc(C[Se]C#N)c1` [m-XSC, 1,3-phenylenebis(methylene)selenocyanate], the “effect of preincubation on inhibition potency of coumarin 7-hydroxylation” value at P450 2A13 (preincubation 15 min with NADPH vs without) was “did not change the inhibition potencies”. Moreover, the “coumarin 7-hydroxylation, % of control” value at P450 2A13 (with preincubation 15 min with NADPH, 1.0 µM coumarin, BSC 1.2 µM, m-XSC 0.22 µM) is given as 54 % of control. Besides, at P450 2A13 (without preincubation, 1.0 µM coumarin, BSC 1.2 µM, m-XSC 0.22 µM), the “coumarin 7-hydroxylation, % of control” value was 56 % of control. Moreover, the “coumarin 7-hydroxylation” value on P450 2A13 (without preincubation, 1.0 µM coumarin, BSC 1.2 µM, m-XSC 0.22 µM, control 1.04) was found to be 0.59 nmol/min/nmol P450. Moreover, on P450 1B1, the Kd amounted to 5.7 ± 1 µM, the ΔAmax/Ks is 3.70 × 10^−3 and the ΔAmax is on record as 21 ± 1.0 × 10^−3. Moreover, the “type of binding spectra” value on P450 1B1 (difference spectra) was “Reverse Type I”. In addition, on P450 1A2, the Kd is 13 ± 1.9 µM, the ΔAmax/Ks is given as 0.46 × 10^−3 and the ΔAmax is recorded as 5.8 ± 0.25 × 10^−3. On P450 2A6, 2.4 ± 0.19 µM corresponded to half-maximal inhibition (IC50).

As a reminder, the Kd is a measure of binding affinity in units of concentration. For orientation: IC50 means the concentration at which inhibition is half-maximal. Low readings indicate greater potency, high ones weaker potency.
